Data reported in patent US7618975B2, “4-arylamino-quinazolines and analogs as activators of caspases and inducers of apoptosis and the use thereof” (Myriad Pharmaceuticals, Inc., priority 2003, dated 2009).

System: T-47D cells
Test: Caspase cascade activation (N-(Ac-DEVD)-N′-ethoxycarbonyl-R110 fluorogenic substrate) in T-47D cells; as to Caspase activity Ratio T-47D (24 hr): test concentration or dose not given here; as to Caspase activity Ratio T-47D (48 hr): test concentration or dose not given here
Format: cell-based, Human
Details: T-47D; for Caspase activity Ratio T-47D (24 hr) / Caspase activity Ratio T-47D (48 hr): ratio of net RFU to control; for Ratio T-47D (48 hr): benzohydrazide analogs table

Row | Structure (SMILES) | Caspase activity Ratio T-47D (24 hr) | Caspase activity Ratio T-47D (48 hr) | Ratio T-47D (48 hr)
1 | COc1ccc(N(C)c2nc(N=[N+]=[N-])nc3ccccc23)cc1 [Example 121, (2-Azido-quinazolin-4-yl)-(4-methoxy-phenyl)-methyl-amine] | 8.8 | – | –
2 | COc1cccc(N(C)c2nc(Cl)nc3ccccc23)c1OC [Example 39, (2-Chloro-quinazolin-4-yl)-(2,3-dimethoxy-phenyl)-methyl-amine] | 4.5 | – | –
3 | CN(c1ccc(O)cc1)c1nc(Cl)nc2ccccc12 [Example 54, (2-Chloro-quinazolin-4-yl)-(4-hydroxyphenyl)-methylamine] | – | 12.5 | –
4 | COc1ccc(CN(C)c2nc(Cl)nc3ccccc23)cc1 [Example 26, (2-Chloro-quinazolin-4-yl)-(4-methoxy-benzyl)-methyl-amine] | – | 15.7 | –
5 | Cc1ccc(Nc2nc(Cl)nc3ccccc23)cc1 [Example 8, (2-Chloro-quinazolin-4-yl)-(4-methyl-phenyl)-amine] | 1.0 | – | –
6 | COc1ccc(Nc2nc(Cl)nc3ccccc23)c(OC)c1 [Example 30, (2-Chloro-quinazolin-4-yl)-(2,4-dimethoxy-phenyl)-amine] | – | 1.0 | –
7 | COc1ccc(N(C)c2nc(OC(C)C)nc3cccc(Cl)c23)cc1 [Example 64, (5-Chloro-2-isopropoxy-quinazolin-4-yl)-(4-methoxy-phenyl)-methyl-amine] | – | 1 | –
8 | COc1ccc(N(c2nc(Cl)nc3ccccc23)C2CCCCC2)cc1 [Example 38, (2-Chloro-quinazolin-4-yl)-cyclohexyl-(4-methoxy-phenyl)-amine] | 3.4 | – | –
9 | COc1ccc(N(C)c2nc(N)nc3ccccc23)cn1 [Example 49, N^4-(6-methoxypyridin-3-yl)-N^4-methyl-quinazoline-2,4-diamine] | 7.5 | 13.4 | –
10 | CSc1nc(N(C)NC(=O)c2cccc(C)c2)c2ccccc2n1 [N′,3-dimethyl-N′-(2-(methylthio)quinazolin-4-yl)benzohydrazide] | – | – | 12.7
11 | COc1ccc(N(C)c2ccnc3ccccc23)cc1 [Example 66, (4-Methoxy-phenyl)-methyl-(quinolin-4-yl)-amine] | 7.2 | 12.5 | –
12 | COc1cc2nc(Cl)nc(N(C)c3ccc(C)cc3)c2cc1OC [Example 22, (2-Chloro-6,7-dimethoxyquinazolin-4-yl)-(4-methyl-phenyl)-methyl-amine] | 1.0 | 1.0 | –
13 | COc1ccccc1Nc1nc(Cl)nc2ccccc12 [Example 33, (2-Chloro-quinazolin-4-yl)-(2-methoxy-phenyl)-amine] | – | 1.0 | –
14 | Clc1nc(Nc2ccncc2)c2ccccc2n1 [Example 27, (2-Chloro-quinazolin-4-yl)-pyridin-4-yl-amine] | – | 1.0 | –
15 | COc1ccc2c(ccn2-c2nc(Cl)nc3ccccc23)c1 [Example 9, 2-Chloro-4-(5-methoxyindol-1-yl)quinazoline] | – | 1.8 | –
16 | COc1cccc(Nc2nc(Cl)nc3ccccc23)c1 [Example 32, (2-Chloro-quinazolin-4-yl)-(3-methoxy-phenyl)-amine] | – | 1.0 | –
17 | COc1ccc(N(C)c2nc(C)nc3cc(N=[N+]=[N-])ccc23)cc1 [Example 114, (7-Azido-2-methyl-quinazolin-4-yl)-(4-methoxy-phenyl)-methyl-amine] | 7.2 | – | –
18 | COc1ccc(N(C)c2nc(NO)nc3ccccc23)cc1 [Example 10, N^2-Hydroxyl-N^4-(4-methoxy-phenyl)-N^4-methyl-quinazoline-2,4-diamine] | – | 12.8 | –
19 | CN(c1ccc(Oc2ccccc2)cc1)c1nc(Cl)nc2ccccc12 [Example 69, (2-Chloro-quinazolin-4-yl)-(4-phenoxy-phenyl)-methyl-amine] | – | 1 | –
20 | CN(c1nc(Cl)nc2ccccc12)[C@H]1CC[C@H](C)CC1 [Example 133, (2-Chloro-quinazolin-4-yl)-(trans-4-methylcyclohexyl)-methyl-amine] | 1.2 | – | –
21 | COc1ccc(N(C)c2nc(N(C)C)nc3ccccc23)cn1 [Example 128, (2-Dimethylamino-quinazolin-4-yl)-(6-methoxy-pyridin-3-yl)-methyl-amine] | 10 | – | –
22 | CN(c1ccc([N+](=O)[O-])cc1)c1nc(Cl)nc2ccccc12 [Example 4, (2-Chloro-quinazolin-4-yl)-(4-nitro-phenyl)-methyl-amine] | 7.1 | – | –
23 | COc1ccc(N(C)c2nc(N(C)C)nc3ccccc23)cc1 [Example 122, (2-Dimethylamino-quinazolin-4-yl)-(4-methoxy-phenyl)-methyl-amine] | 8.2 | – | –
24 | CN(c1nc(Cl)nc2ccccc12)[C@H]1CC[C@@H](C)CC1 [Example 132, (2-Chloro-quinazolin-4-yl)-(cis-4-methylcyclohexyl)-methyl-amine] | 1.2 | – | –

Row | Structure (SMILES) | Caspase activity Ratio T-47D (24 hr) | Caspase activity Ratio T-47D (48 hr) | Ratio T-47D (48 hr)
25 | COc1ccc(N(C)c2nc(C(=O)O)nc3ccccc23)cc1 [Example 118, 4-(N-(4-Methoxy-phenyl)-N-methylamino)quinazoline-2-carboxylic Acid] | 1.0 | – | –
26 | COc1ccc(N(C)c2nc(Cl)nc3cccc(Cl)c23)cc1 [Example 90, (2,5-Dichloro-quinazolin-4-yl)-(4-methoxy-phenyl)-methyl-amine] | 10.6 | – | –
27 | COc1ccc(Nc2nc(Cl)nc3ccccc23)cn1 [Example 28, (2-Chloro-quinazolin-4-yl)-(6-methoxy-pyridin-3-yl)-amine] | 1.0 | 1.0 | –
28 | CCc1ccc(Nc2nc(C)nc3ccccc23)cc1 [Example 81, (4-Ethyl-phenyl)-(2-methyl-quinazolin-4-yl)-amine] | 1.9 | – | –
29 | Cc1nc(N(C)c2ccc(C(=O)ON3C(=O)CCC3=O)cc2)c2ccccc2n1 [Example 119, Succinimidyl 4-(N-Methyl-N-(2-methylquinazolin-4-yl)amino)benzoic Acid Ester] | 11.8 | – | –
30 | COc1ccc(N(C)c2nc(-c3ccccc3)nc3ccccc23)cc1 [Example 83, (4-Methoxy-phenyl)-(2-phenyl-quinazolin-4-yl)-methyl-amine] | – | 10.8 | –
31 | Cc1nc(Nc2ccc(O)cc2)c2ccccc2n1 [Example 127, (4-hydroxy-phenyl)-(2-methyl-quinazolin-4-yl)-amine] | 1.2 | – | –
32 | COc1ccc(N(C)c2nc(N(C)c3ccc(OC)cc3)c3c(Cl)cccc3n2)cc1 [Example 63, 5-Chloro-N^2,N^4-bis-(4-methoxy-phenyl)-N^2,N^4-dimethyl-quinazoline-2,4-diamine] | – | 10.9 | –
33 | COc1ccc(N(C)c2nc(NC/C=C(\C)CCC=C(C)C)nc3cc(OC)c(OC)cc23)cc1 [Example 24, 6,7-Dimethoxy-N^2-(3,7-dimethyl-octa-2,6-dienyl)-N^4-(4-methoxy-phenyl)-N^4-methyl-quinazoline-2,4-diamine] | 1.0 | 2.4 | –
34 | CN(c1ccc(Cl)cc1)c1nc(N(C)c2ccc(Cl)cc2)c2ccccc2n1 [Example 19, N^2,N^4-Bis(4-chloro-phenyl)-N^2,N^4-dimethyl-quinazoline-2,4-diamine] | 1.0 | 1.0 | –
35 | COc1ccc(N(C)c2nc(Cl)nc3c(C)cccc23)cc1 [Example 59, (2-Chloro-8-methyl-quinazolin-4-yl)-(4-methoxy-phenyl)-methyl-amine] | – | 7.1 | –
36 | COc1ccc(N(C)c2nc(C)nc3cccc(OC)c23)cc1 [Example 91, (5-Methoxy-2-methyl-quinazolin-4-yl)-(4-methoxy-phenyl)-methyl-amine] | 8.3 | – | –
37 | C[C@H]1CC[C@@H](Nc2nc(Cl)nc3ccccc23)CC1 [Example 130, (2-Chloro-quinazolin-4-yl)-(cis-4-methylcyclohexyl)-amine] | 1.2 | – | –
38 | Cc1nc(N(C)c2ccc([N+](=O)[O-])cc2)c2ccccc2n1 [Example 100, (2-Methyl-quinazolin-4-yl)-(4-nitro-phenyl)-methyl-amine] | 8.9 | – | –
39 | CSc1nc(N(C)NC(=O)c2cccs2)c2ccccc2n1 [N′-methyl-N′-(2-(methylthio)quinazolin-4-yl)thiophene-2-carbohydrazide] | – | – | 10.1
40 | CNc1nc(N(C)c2ccc(OC)nc2)c2ccccc2n1 [Example 129, (2-Methylamino-quinazolin-4-yl)-(6-methoxy-pyridin-3-yl)-methyl-amine] | 10 | – | –
41 | COc1ccc(N(C)c2nc(Cl)nc3[nH]cnc23)cc1 [Example 51, (2-Chloro-9H-purin-6-yl)-(4-methoxy-phenyl)-methyl-amine] | – | 0.9 | –
42 | COc1ccc(N(C)c2nc(Cl)nc3ccc(Cl)cc23)cc1 [Example 60, (2,6-Dichloro-quinazolin-4-yl)-(4-methoxy-phenyl)-methyl-amine] | – | 6.5 | –
43 | Cc1nc(N(C)c2ccc(C(=O)O)cc2)c2ccccc2n1 [Example 116, 4-(N-Methyl-N-(2-methylquinazolin-4-yl)amino)benzoic Acid] | 1.0 | – | –
44 | CSc1nc(N(C)NC(=O)c2ccc(F)cc2)c2ccccc2n1 [4-fluoro-N′-methyl-N′-(2-(methylthio)quinazolin-4-yl)benzohydrazide] | – | – | 13.8
45 | COc1cc(OC)c(N(C)c2nc(C)nc3ccccc23)c(OC)c1 [Example 88, (2-Methyl-quinazolin-4-yl)-(2,4,6-trimethoxy-phenyl)-methyl-amine] | 7.6 | – | –
46 | COc1ccc(Nc2nc(C)nc3ccccc23)cc1F [Example 79, (3-Fluoro-4-methoxy-phenyl)-(2-methyl-quinazolin-4-yl)-amine] | 0.7 | – | –
47 | COc1ccc(N(C)c2nc(Cl)nc3ccc(C)cc23)cc1 [Example 56, (2-Chloro-6-methyl-quinazolin-4-yl)-(4-methoxy-phenyl)-methyl-amine] | – | 4.9 | –
